What was measured:
[1] = Formation and stability of other peracids at room temperature (titration); type: physicochemical
Procedure: (§1) The concentrations of formed peracids and hydrogen peroxide were monitored by titration on an auto-titrator and by using Chemetrics test kits K7913F and K-5543.
Various other peracids were also prepared using corresponding organic acid precursors and hydrogen peroxide as described in the Example 1. Only the acids with low or no odor were used in the experiment. The solutions were kept at room temperature and periodically tested for the concentration of the components using an auto-titrator and standard titration methods.

[2] = Formation and stability of peroxycitric acid solutions at room temperature (titration); type: physicochemical; conditions: H2SO4 catalyst
Procedure: as §1
Two solutions were prepared using solid citric acid (47.9 wt %), 70 wt % hydrogen peroxide (21.8 wt %) and the rest DI water. 0.6 wt % Dequest 2010 stabilizer was added to both solutions. To the first solution (PCA-1), 4.9 wt % concentrated sulfuric acid was added as a catalyst. To the second solution (PCA-2), 0.6 wt % of sulfuric acid was added. Both solutions were kept at room temperature and periodically tested for the concentration of the components using an auto-titrator and standard titration methods.

| Compound | Peracid Concentration ([1]; 1 day) | Peracid Concentration ([1]; 3 days) | Peracid Concentration ([1]; 7 days) | Peracid Concentration ([1]; 14 days) | Peracid Concentration ([1]; 22 days) | max peracid concentration formed [1] | time for which peracid was stable [1] | Peracid Concentration ([1]; 78 days) | concentration of peracid formed [1] | time to reach maximum concentration of PCA [2] |
| --- | --- | --- | --- | --- | --- | --- | --- | --- | --- | --- |
| O=C(O)CCCC(=O)OO [Peroxyglutaric, perglutaric acid] | 0.993 mol/kg | 1.189 mol/kg | 1.081 mol/kg | 0.986 mol/kg | 0.919 mol/kg |  |  |  |  |  |
| O=C(O)/C=C\C(=O)OO [Peroxymaleic, Permaleic acid] | 0.235 mol/kg |  | 0.386 mol/kg | 0.379 mol/kg | 0.348 mol/kg | 5.1 wt % | at least 78 days | 0.318 mol/kg |  |  |
| O=C(O)CC(=O)OO [Peroxymalonic, permalonic acid] |  | 0.442 mol/kg | 0.200 mol/kg | 0.083 mol/kg |  |  |  |  |  |  |
| O=C(O)C(=O)OO [Peroxyoxalic, peroxalic acid] |  | 0.047 mol/kg | 0.066 mol/kg | 0.057 mol/kg |  |  |  |  | < 1.0 wt % |  |
| Percitric acid [PCA] |  |  |  |  |  |  |  |  |  | 3 to 7 days |
